# Measured values reported in patent publication US7300939B2, “Substituted 1-propiolylpiperazine compounds, their preparation and use” (Gruenenthal GmbH, priority 2005, dated 2007).
# pIC50: −log10 of the molar value. Structures can show the parent of a compound that is named as a salt.
# Target: T1, mGluR5 receptor (Sus scrofa, UniProt I3LUI7)
# T1 construct: from tissue; host or cells: pig brain halves without medulla, cerebellum and pons
# Test: [3H]-MPEP binding in the mGluR5 receptor binding assay (pig brain homogenate)
# Conditions: 10 μM; pig brain homogenate; 5 nM [3H]-MPEP
# Experimental: I. Method the Determination of the Inhibition of the [^3H]-MPEP Binding in the mGluR5 Receptor Binding Assay
# Pig brain homogenate is prepared by homogenization (Polytron PT 3000, Kinematica AG, 10,000 revolutions per minute 90 seconds) of pig brain halves without medulla, cerebellum and pons in a buffer solution having a pH of 8.0 (30 mM of hepes, Sigma, order no. H3375+1 tablet of Complete to 100 ml, Roche Diagnostics, order no. 1836145) in a ratio of 1:20 (brain weight/volume) and differential centrifugation at 900×g and 40,000×g. In each case 450 μg of protein from brain homogenate are incubated with 5 nM [^3H]-MPEP (Tocris, order no. R1212) (MPEP=2-methyl-6-(3-methoxyphenyl)ethynylpyridine) and the compounds to be investigated (10 μM in the test) in a buffer solution (as above) in 250 μl incubation batches in 96-well microtiter plates at room temperature 60 min.
# Thereafter, the batches are filtered with the aid of a Brandel cell harvester (Brandel, Robotic 9600 model) onto Unifilter plates with glass fiber filter mats (Perkin Elmer, order no. 6005177) and then rinsed with buffer solution (as above) 3 times with 250 μl per sample each time. The filter plates are then dried 60 min at 55° C. 30 μl Ultima Gold™ scintillator (Packard BioScience, order no. 6013159) are subsequently added per well and, after 3 hours, the samples are measured on a β-counter (Mikrobeta, Perkin Elmer). The non-specific binding is determined by addition of 10 μM of MPEP (Tocris, order no. 1212).
# T1 sequence (I3LUI7 19-1212): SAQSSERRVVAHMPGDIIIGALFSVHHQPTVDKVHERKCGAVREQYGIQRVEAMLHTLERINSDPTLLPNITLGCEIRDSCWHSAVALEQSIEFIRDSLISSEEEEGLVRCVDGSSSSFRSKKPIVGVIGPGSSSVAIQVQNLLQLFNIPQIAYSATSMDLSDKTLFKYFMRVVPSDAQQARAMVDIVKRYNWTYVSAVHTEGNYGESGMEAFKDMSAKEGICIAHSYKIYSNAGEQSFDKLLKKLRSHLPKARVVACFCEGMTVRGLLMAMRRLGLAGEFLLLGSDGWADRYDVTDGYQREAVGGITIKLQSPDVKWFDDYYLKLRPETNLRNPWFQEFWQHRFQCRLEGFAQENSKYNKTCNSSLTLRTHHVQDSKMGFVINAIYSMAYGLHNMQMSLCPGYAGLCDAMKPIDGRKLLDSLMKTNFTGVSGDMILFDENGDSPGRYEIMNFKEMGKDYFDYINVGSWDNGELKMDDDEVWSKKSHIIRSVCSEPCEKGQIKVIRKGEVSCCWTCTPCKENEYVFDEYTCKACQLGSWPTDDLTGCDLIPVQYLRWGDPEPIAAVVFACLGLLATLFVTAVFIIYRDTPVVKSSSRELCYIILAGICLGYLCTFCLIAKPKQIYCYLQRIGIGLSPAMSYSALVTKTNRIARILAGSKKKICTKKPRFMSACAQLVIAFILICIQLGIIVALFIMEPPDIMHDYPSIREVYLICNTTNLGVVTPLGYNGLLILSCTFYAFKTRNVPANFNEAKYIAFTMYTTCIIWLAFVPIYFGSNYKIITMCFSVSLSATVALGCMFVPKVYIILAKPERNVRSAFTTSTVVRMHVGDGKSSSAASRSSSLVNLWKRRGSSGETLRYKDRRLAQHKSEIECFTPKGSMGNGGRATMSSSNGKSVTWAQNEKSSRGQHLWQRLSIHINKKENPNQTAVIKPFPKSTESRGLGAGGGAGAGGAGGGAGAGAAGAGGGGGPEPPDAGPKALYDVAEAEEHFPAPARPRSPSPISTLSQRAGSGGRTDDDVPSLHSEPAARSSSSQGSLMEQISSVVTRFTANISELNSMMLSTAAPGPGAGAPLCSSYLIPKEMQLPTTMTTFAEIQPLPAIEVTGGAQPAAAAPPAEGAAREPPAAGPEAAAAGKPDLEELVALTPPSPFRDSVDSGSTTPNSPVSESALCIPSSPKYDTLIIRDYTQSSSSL
row,Structure (SMILES),mGluR5-receptor (% inhibition 10 μM) in pigs [%]
1,"CSc1cccc(C#CC(=O)N2CCN(c3nccs3)CC2)c1 [Example AAA40, 4-(Thiazol-2-yl)-1-(3-(3-methylmercaptophenyl)propiolyl)piperazine]",80
2,"N#Cc1cc(C#CC(=O)N2CCN(c3nccs3)CC2)ccc1F [Example AAA41, 4-(Thiazol-2-yl)-1-(3-(3-cyano-4-fluorophenyl)propiolyl)piperazine]",78
3,"COCc1cccc(C#CC(=O)N2CCN(c3nccs3)CC2)c1 [Example AAA42, 4-(Thiazol-2-yl)-1-(3-(3-methoxymethylphenyl)propiolyl)piperazine]",88
4,"O=C(C#Cc1cccc(O)c1)N1CCN(c2nccs2)CC1 [Example AAA43, 4-(Thiazol-2-yl)-1-(3-(3-hydroxyphenyl)propiolyl)piperazine]",83
5,"CC(=O)Nc1cccc(C#CC(=O)N2CCN(c3nccs3)CC2)c1 [Example AAA44, 4-(Thiazol-2-yl)-1-(3-(3-acetaminophenyl)propiolyl)piperazine]",30
6,"COC(=O)c1cccc(C#CC(=O)N2CCN(c3nccs3)CC2)c1 [Example AAA49, 4-(Thiazol-2-yl)-1-(3-(3-carboxyphenyl)propiolyl)piperazine methyl ester]",43
7,"Cc1ccccc1C#CC(=O)N1CCN(c2nccs2)CC1.Cl [Example AAA53, 4-(Thiazol-2-yl)-1-(3-(2-tolyl)propiolyl)piperazine hydrochloride]",33
8,"Cc1ccc(C#CC(=O)N2CCN(c3nccs3)CC2)cc1.Cl [Example AAA55, 4-(Thiazol-2-yl)-1-(3-(4-tolyl)propiolyl)piperazine hydrochloride]",41
9,"Cl.O=C(C#Cc1ccccc1C(F)(F)F)N1CCN(c2nccs2)CC1 [Example AAA57, 4-(Thiazol-2-yl)-1-(3-(2-trifluoromethylphenyl)propiolyl)piperazine hydrochloride]",81
10,"O=C(C#Cc1ccc(F)cc1)N1CCN(c2nccs2)CC1 [Example AAA61, 4-(Thiazol-2-yl)-1-(3-(4-fluorophenyl)propiolyl)piperazine]",76
11,"CC1CN(c2nccs2)CCN1C(=O)C#Cc1ccccc1 (stereo not drawn) [Example AAA63, 2-Methyl-4-(thiazol-2-yl)-1-(3-phenylpropiolyl)piperazine]",89
12,"C[C@H]1CN(c2nccs2)CCN1C(=O)C#Cc1ccccc1 [Example AAA64, (S)-2-Methyl-4-(thiazol-2-yl)-1-(3-phenylpropiolyl)piperazine]",72
13,"C[C@@H]1CN(c2nccs2)CCN1C(=O)C#Cc1ccccc1 [Example AAA65, (R)-2-Methyl-4-(thiazol-2-yl)-1-(3-phenylpropiolyl)piperazine]",93
14,"CC1CN(c2nccs2)CCN1C(=O)C#Cc1ccccc1.Cl (stereo not drawn) [Example AAA66, 2-Methyl-4-(thiazol-2-yl)-1-(3-phenylpropiolyl)piperazine hydrochloride]",93
15,"Cc1cccc(C#CC(=O)N2CCN(c3nccs3)CC2C)c1.Cl (stereo not drawn) [Example AAA67, 2-Methyl-4-(thiazol-2-yl)-1-(3-(3-tolyl)propiolyl)piperazine hydrochloride]",94
16,"O=C(C#CC1CCCCC1)N1CCN(c2nccs2)CC1 [Example AAA69, 4-(Thiazol-2-yl)-1-(3-cyclohexylpropiolyl)piperazine]",72

row,Structure (SMILES),mGluR5-receptor (% inhibition 10 μM) in pigs [%]
1,"O=C(C#Cc1ccccc1)N1CCN(c2nccs2)CC1c1ccccc1 (stereo not drawn) [Example AAA72, 2-Phenyl-4-(thiazol-2-yl)-1-(3-phenylpropiolyl)piperazine]",81
2,"O=C(C#Cc1ccco1)N1CCN(c2nccs2)CC1 [Example AAA73, 4-(Thiazol-2-yl)-1-(3-(2-furyl)propiolyl)piperazine]",74
3,"C[C@@H]1CN(c2nccs2)C[C@H](C)N1C(=O)C#Cc1ccccc1 [Example AAA75, cis-2,6-Dimethyl-4-(thiazol-2-yl)-1-(3-phenylpropiolyl)piperazine]",97
4,"CCOC(=O)c1csc(N2CCN(C(=O)C#Cc3ccccc3)CC2)n1 [Example AAA77, 4-(4-Carboxy-thiazol-2-yl)-1-(3-phenylpropiolyl)piperazine ethyl ester]",89
5,"CNC(=O)c1cnc(N2CCN(C(=O)C#Cc3ccccc3)CC2)s1 [Example AAA80, 4-(5-Methylaminocarbonylthiazol-2-yl)-1-(3-phenylpropiolyl)piperazine]",76
6,"CN(C)C(=O)c1cnc(N2CCN(C(=O)C#Cc3ccccc3)CC2)s1 [Example AAA81, 4-(5-Dimethylaminocarbonylthiazol-2-yl)-1-(3-phenylpropiolyl)piperazine]",72
7,"O=C(C#Cc1ccccc1)N1CCN(c2nc(-c3ccccc3)ns2)CC1 [Example AAA82, 4-(3-Phenyl-1,2,4-thiadiazol-5-yl)-1-(3-phenylpropiolyl)piperazine]",37
8,"O=C(C#Cc1ccccc1)N1CCN(c2nc(Cc3ccc(F)cc3)ns2)CC1 [Example AAA85, 4-(3-(4-Fluorobenzyl)-1,2,4-thiadiazol-5-yl)-1-(3-phenylpropiolyl)piperazine]",93
9,"O=C(C#Cc1ccccc1)N1CCN(c2ncc([N+](=O)[O-])s2)CC1 [Example AAA86, 4-(5-Nitrothiazol-2-yl)-1-(3-phenylpropiolyl)piperazine]",31
10,"Cc1cnc(N2CCN(C(=O)C#Cc3ccccc3)CC2)s1 [Example AAA88, 4-(5-Methylthiazol-2-yl)-1-(3-phenylpropiolyl)piperazine]",94
11,"Cc1nc(N2CCN(C(=O)C#Cc3ccccc3)CC2)sc1C [Example AAA89, 4-(4,5-Dimethylthiazol-2-yl)-1-(3-phenylpropiolyl)piperazine]",86
12,"Cc1csc(N2CCN(C(=O)C#Cc3ccccc3)CC2)n1 [Example AAA92, 4-(4-Methylthiazol-2-yl)-1-(3-phenylpropiolyl)piperazine]",87
13,"O=C(C#Cc1ccccc1)N1CCN(c2nc(C(F)(F)F)cs2)CC1 [Example AAA93, 4-(4-Trifluoromethylthiazol-2-yl)-1-(3-phenylpropiolyl)piperazine]",52
14,"O=C(C#Cc1ccccc1)N1CCN(c2nc(Cl)cs2)CC1 [Example AAA94, 4-(4-Chlorothiazol-2-yl)-1-(3-phenylpropiolyl)piperazine]",91
15,"O=C(C#Cc1ccccc1)N1CCN(c2ncc(Cl)s2)CC1 [Example AAA95, 4-(5-Chlorothiazol-2-yl)-1-(3-phenylpropiolyl)piperazine]",58
16,"O=C(C#Cc1ccccc1)N1CCN(c2nc(-c3ccccc3)cs2)CC1 [Example AAA99, 4-(4-Phenylthiazol-2-yl)-1-(3-phenylpropiolyl)piperazine]",87

# Same assay, conditions: Table II; unit inferred
row,Structure (SMILES),pIC50
1,"O=C(C#Cc1cccc(C(F)(F)F)c1)N1CCN(c2nccs2)CC1 [Example AAA58, 4-(Thiazol-2-yl)-1-(3-(3-trifluoromethylphenyl)propiolyl)piperazine hydrochloride]",6.62
2,"CCCCCC#CC(=O)N1CCN(c2nccs2)CC1 [Example AAA60, 4-(Thiazol-2-yl)-1-(3-pentylpropiolyl)piperazine]",5.73
3,"CCC1CN(c2nccs2)CCN1C(=O)C#Cc1ccccc1 (stereo not drawn) [Example AAA71, 2-Ethyl-4-(thiazol-2-yl)-1-(3-phenylpropiolyl)piperazine]",7.42
4,"O=C(C#Cc1ccoc1)N1CCN(c2nccs2)CC1 [Example AAA74, 4-(Thiazol-2-yl)-1-(3-(3-furyl)propiolyl)piperazine]",5.50
5,"CCOC(=O)c1cnc(N2CCN(C(=O)C#Cc3ccccc3)CC2)s1 [Example AAA76, 4-(5-Carboxy-thiazol-2-yl)-1-(3-phenylpropiolyl)piperazine ethyl ester]",6.77
6,"O=C(C#Cc1ccccc1)N1CCN(c2ncc(Br)s2)CC1 [Example AAA96, 4-(5-Bromothiazol-2-yl)-1-(3-phenylpropiolyl)piperazine]",6.44
7,"O=C(C#Cc1ccccc1)N1CCN(c2nc(Br)cs2)CC1 [Example AAA97, 4-(4-Bromothiazol-2-yl)-1-(3-phenylpropiolyl)piperazine]",6.14
